Measurements reported in ChEMBL document CHEMBL4130619, “Structure-Based Virtual Screening for the Discovery of Novel Inhibitors of New Delhi Metallo-β-lactamase-1” (ACS Med Chem Lett, 2018).
Values after ≈ are worked out from the molar mass of the structure shown. Each block holds one compound with its values, some of them ahead of it.

Legend:
Escherichia coli [1] = assay: Antibacterial activity in Escherichia coli clinical isolates endogenously expressing NDM1 incubated at 37 degC for 18 hrs by spectrophotometry; format: functional
Escherichia coli [2] = assay: Antibacterial activity in Escherichia coli BL21 (DE3) expressing pET-24a-blaNDM-1 incubated at 37 degC for 18 hrs by spectrophotometry; format: functional
[3] = Competitive inhibition of bacterial NDM1 expressed in Escherichia coli JM109 (DE3) pre-incubated for 10 mins before nitrocefin substrate addition by spectrophotometry; parameters: species or system Bacteria
Bacteria [4] = assay: Competitive inhibition of bacterial NDM1 expressed in Escherichia coli JM109 (DE3) at 200 uM pre-incubated for 10 mins before nitrocefin substrate addition by spectrophotometry
Bacteria [5] = assay: (§1) Inhibition of bacterial NDM1 expressed in Escherichia coli BL21 (DE3) expressing pET-24a-blaNDM-1 assessed as potentiation of ampicillin-induced antibacterial activity by measuring combination MIC at >256 ug/ml incubated at 37 degC for 18 hrs by spectrophotometry based checkerboard microdilution assay
Bacteria [6] = assay: as §1, with “meropenem-induced” for “ampicillin-induced”, “fractional inhibitory concentration index” for “combination MIC”, “0.25” for “>256”
Bacteria [7] = assay: as §1, with “cefazolin-induced” for “ampicillin-induced”
[8] = target: Beta-lactamase NDM-1 (Escherichia coli) (UniProt E5KIY2); assay: Inhibition of NDM1 in Escherichia coli clinical isolates assessed as potentiation of cefotaxime-induced antibacterial activity by measuring fractional inhibitory concentration index at >256 ug/ml incubated at 37 degC for 18 hrs by spectrophotometry based checkerboard microdilution assay
Bacteria [9] = assay: (§2) Inhibition of bacterial NDM1 expressed in Escherichia coli BL21 (DE3) expressing pET-24a-blaNDM-1 assessed as potentiation of cefotaxime-induced antibacterial activity by measuring reduction in cefotaxime MIC incubated at 37 degC for 18 hrs by spectrophotometry based checkerboard microdilution assay
[10] = target: Beta-lactamase NDM-1 (Escherichia coli) (UniProt E5KIY2); assay: Inhibition of NDM1 in Escherichia coli clinical isolates assessed as potentiation of ampicillin-induced antibacterial activity by measuring fractional inhibitory concentration index at 128 ug/ml incubated at 37 degC for 18 hrs by spectrophotometry based checkerboard microdilution assay
[11] = target: Beta-lactamase NDM-1 (Escherichia coli) (UniProt E5KIY2); assay: Inhibition of NDM1 in Escherichia coli clinical isolates assessed as potentiation of meropenem -induced antibacterial activity by measuring combination MIC at 2 ug/ml incubated at 37 degC for 18 hrs by spectrophotometry based checkerboard microdilution assay
Bacteria [12] = assay: as §1, with “fractional inhibitory concentration index” for “combination MIC”, “256” for “>256”
Bacteria [13] = assay: Inhibition of bacterial NDM1 expressed in Escherichia coli BL21 (DE3) expressing pET-24a-blaNDM-1 assessed as potentiation of meropenem-induced antibacterial activity by measuring reduction in meropenem MIC incubated at 37 degC for 18 hrs by spectrophotometry based checkerboard microdilution assay
Bacteria [14] = assay: (§3) Inhibition of bacterial NDM1 expressed in Escherichia coli BL21 (DE3) expressing pET-24a-blaNDM-1 assessed as potentiation of meropenem-induced antibacterial activity by measuring combination MIC at 16 ug/ml incubated at 37 degC for 18 hrs by spectrophotometry based checkerboard microdilution assay
Bacteria [15] = assay: as §3, with “0.25” for “16”
[16] = target: Beta-lactamase NDM-1 (Escherichia coli) (UniProt E5KIY2); assay: Inhibition of NDM1 in Escherichia coli clinical isolates assessed as potentiation of meropenem -induced antibacterial activity by measuring fractional inhibitory concentration index at 2 ug/ml incubated at 37 degC for 18 hrs by spectrophotometry based checkerboard microdilution assay
Bacteria [17] = assay: as §1, with “cefazolin-induced” for “ampicillin-induced”, “fractional inhibitory concentration index” for “combination MIC”, “256” for “>256”
Bacteria [18] = assay: as §1, with “fractional inhibitory concentration index” for “combination MIC”
[19] = target: Beta-lactamase NDM-1 (Escherichia coli) (UniProt E5KIY2); assay: Inhibition of NDM1 in Escherichia coli clinical isolates assessed as potentiation of cefazolin-induced antibacterial activity by measuring fractional inhibitory concentration index at >256 ug/ml incubated at 37 degC for 18 hrs by spectrophotometry based checkerboard microdilution assay
Bacteria [20] = assay: as §1, with “256” for “>256”
[21] = target: Beta-lactamase NDM-1 (Escherichia coli) (UniProt E5KIY2); assay: Inhibition of NDM1 in Escherichia coli clinical isolates assessed as potentiation of meropenem -induced antibacterial activity by measuring combination MIC at 32 ug/ml incubated at 37 degC for 18 hrs by spectrophotometry based checkerboard microdilution assay
Bacteria [22] = assay: (§4) Inhibition of bacterial NDM1 expressed in Escherichia coli BL21 (DE3) expressing pET-24a-blaNDM-1 assessed as potentiation of cefazolin-induced antibacterial activity by measuring combination MIC at 256 ug/ml incubated at 37 degC for 18 hrs by spectrophotometry based checkerboard microdilution assay
[23] = target: Beta-lactamase NDM-1 (Escherichia coli) (UniProt E5KIY2); assay: Inhibition of NDM1 in Escherichia coli clinical isolates assessed as potentiation of meropenem-induced antibacterial activity by measuring reduction in meropenem MIC incubated at 37 degC for 18 hrs by spectrophotometry based checkerboard microdilution assay
[24] = target: Beta-lactamase NDM-1 (Escherichia coli) (UniProt E5KIY2); assay: Inhibition of NDM1 in Escherichia coli clinical isolates assessed as potentiation of ampicillin-induced antibacterial activity by measuring combination MIC at 128 ug/ml incubated at 37 degC for 18 hrs by spectrophotometry based checkerboard microdilution assay
[25] = target: Beta-lactamase NDM-1 (Escherichia coli) (UniProt E5KIY2); assay: Inhibition of NDM1 in Escherichia coli clinical isolates assessed as potentiation of cefotaxime-induced antibacterial activity by measuring combination MIC at >256 ug/ml incubated at 37 degC for 18 hrs by spectrophotometry based checkerboard microdilution assay
Bacteria [26] = assay: as §2, with “fractional inhibitory concentration index at 0.25 ug/ml” for “reduction in cefotaxime MIC”
Bacteria [27] = assay: (§5) Inhibition of bacterial NDM1 expressed in Escherichia coli BL21 (DE3) expressing pET-24a-blaNDM-1 assessed as potentiation of cefotaxime-induced antibacterial activity by measuring combination MIC at 4 ug/ml incubated at 37 degC for 18 hrs by spectrophotometry based checkerboard microdilution assay
Bacteria [28] = assay: as §5, with “at 0.25” for “at 4”
[29] = target: Beta-lactamase NDM-1 (Escherichia coli) (UniProt E5KIY2); assay: Inhibition of NDM1 in Escherichia coli clinical isolates assessed as potentiation of cefazolin-induced antibacterial activity by measuring combination MIC at >256 ug/ml incubated at 37 degC for 18 hrs by spectrophotometry based checkerboard microdilution assay
Bacteria [30] = assay: as §3, with “fractional inhibitory concentration index” for “combination MIC”
Bacteria [31] = assay: as §5, with “fractional inhibitory concentration index” for “combination MIC”
Bacteria [32] = assay: as §1, with “cefazolin-induced” for “ampicillin-induced”, “fractional inhibitory concentration index” for “combination MIC”
[33] = target: Beta-lactamase NDM-1 (Escherichia coli) (UniProt E5KIY2); assay: Inhibition of NDM1 in Escherichia coli clinical isolates assessed as potentiation of meropenem -induced antibacterial activity by measuring fractional inhibitory concentration index at 32 ug/ml incubated at 37 degC for 18 hrs by spectrophotometry based checkerboard microdilution assay
[34] = target: Beta-lactamase NDM-1 (Escherichia coli) (UniProt E5KIY2); assay: Inhibition of NDM1 in Escherichia coli clinical isolates assessed as potentiation of meropenem -induced antibacterial activity by measuring combination MIC at 64 ug/ml incubated at 37 degC for 18 hrs by spectrophotometry based checkerboard microdilution assay
Bacteria [35] = assay: as §4, with “0.25” for “256”
Bacteria [36] = assay: (§6) Inhibition of bacterial NDM1 expressed in Escherichia coli BL21 (DE3) expressing pET-24a-blaNDM-1 assessed as potentiation of meropenem-induced antibacterial activity by measuring combination MIC at 0.5 ug/ml incubated at 37 degC for 18 hrs by spectrophotometry based checkerboard microdilution assay
Bacteria [37] = assay: (§7) Inhibition of bacterial NDM1 expressed in Escherichia coli BL21 (DE3) expressing pET-24a-blaNDM-1 assessed as potentiation of meropenem-induced antibacterial activity by measuring combination MIC at 64 ug/ml incubated at 37 degC for 18 hrs by spectrophotometry based checkerboard microdilution assay
[38] = target: Beta-lactamase NDM-1 (Escherichia coli) (UniProt E5KIY2); assay: Inhibition of NDM1 in Escherichia coli clinical isolates assessed as potentiation of meropenem -induced antibacterial activity by measuring fractional inhibitory concentration index at 64 ug/ml incubated at 37 degC for 18 hrs by spectrophotometry based checkerboard microdilution assay
Bacteria [39] = assay: as §1, with “0.25” for “>256”
Bacteria [40] = assay: as §4, with “fractional inhibitory concentration index” for “combination MIC”, “0.25” for “256”
Bacteria [41] = assay: as §7, with “fractional inhibitory concentration index” for “combination MIC”
Bacteria [42] = assay: as §1, with “fractional inhibitory concentration index” for “combination MIC”, “0.25” for “>256”
Bacteria [43] = assay: as §6, with “fractional inhibitory concentration index” for “combination MIC”

Compound: CO/N=C(\C(=O)N[C@@H]1C(=O)N2C(C(=O)O)=C(COC(C)=O)CS[C@H]12)c1csc(N)n1 [CEFOTAXIME]
MIC (Escherichia coli [1]): 1020 µg/mL (≈ 2250 µM)
MIC (Escherichia coli [2]): 8 µg/mL (≈ 17.6 µM)

Compound: C[C@@H](O)[C@H]1C(=O)N2C(C(=O)O)=C(S[C@@H]3CN[C@H](C(=O)N(C)C)C3)[C@H](C)[C@H]12 [MEROPENEM]
MIC (Escherichia coli [1]): 128 µg/mL (≈ 334 µM)
MIC (Escherichia coli [2]): 1 µg/mL (≈ 2.61 µM)

inhibition (Bacteria [4]): > 50%
Compound: Cc1ccc(-n2nnnc2CS(=O)(=O)c2ccccc2)cc1
Ki [3]: 71 µM

inhibition (Bacteria [4]): > 50%
Compound: O=C(CS(=O)(=O)c1ccccc1)NC1CCCCC1
Ki [3]: 52 µM

MIC (Escherichia coli [1]): > 32800 µg/mL
MIC (Escherichia coli [2]): 1020 to 2050 µg/mL (≈ 2930 to 5860 µM)
Compound: CC1(C)S[C@@H]2[C@H](NC(=O)[C@H](N)c3ccccc3)C(=O)N2[C@H]1C(=O)O [AMPICILLIN]

inhibition (Bacteria [4]): > 50%
Compound: Nc1ncnc2c1nc(S(=O)(=O)O)n2Cc1ccccc1
Ki [3]: 65 µM

MIC (Bacteria [5]): 1020 µg/mL
fractional inhibitory concentration index (FICI) (Bacteria [6]): < 0.501
MIC (Bacteria [7]): 32 µg/mL
fractional inhibitory concentration index (FICI) [8]: > 1
fold change (FC) (Bacteria [9]): 4
fractional inhibitory concentration index (FICI) [10]: < 0.375
MIC [11]: 64 µg/mL
fractional inhibitory concentration index (FICI) (Bacteria [12]): < 0.563
fold change (FC) (Bacteria [13]): 16
MIC (Bacteria [14]): 0.25 µg/mL
MIC (Bacteria [15]): 0.5 µg/mL
fractional inhibitory concentration index (FICI) [16]: < 0.504
fractional inhibitory concentration index (FICI) (Bacteria [17]): < 0.625
fractional inhibitory concentration index (FICI) (Bacteria [18]): > 1
fractional inhibitory concentration index (FICI) [19]: > 1
MIC (Bacteria [20]): 0.0625 µg/mL
MIC [21]: 32 µg/mL
MIC (Bacteria [22]): 1 µg/mL
fold change (FC) [23]: 8
MIC [24]: 16 µg/mL
MIC [25]: 1020 µg/mL
fractional inhibitory concentration index (FICI) (Bacteria [26]): < 0.505
MIC (Bacteria [27]): 2 µg/mL
MIC (Bacteria [28]): 4 µg/mL
MIC [29]: 2050 µg/mL
fractional inhibitory concentration index (FICI) (Bacteria [30]): < 0.281
fractional inhibitory concentration index (FICI) (Bacteria [31]): < 0.258
inhibition (Bacteria [4]): > 50%
fractional inhibitory concentration index (FICI) (Bacteria [32]): > 1
fractional inhibitory concentration index (FICI) [33]: < 0.313
Compound: C=CCn1c(S)nnc1-c1ccccc1O
Ki [3]: 0.72 µM

inhibition (Bacteria [4]): > 50%
Compound: Nc1nnnn1NCc1cccc(Cl)c1Cl
Ki [3]: 67 µM

inhibition (Bacteria [4]): > 50%
Compound: O=C(O)CN1C(=O)S/C(=C\c2ccccc2Br)C1=O
Ki [3]: 76 µM

MIC (Escherichia coli [2]): ≥ 32 µg/mL
Compound: Cc1nnc(SCC2=C(C(=O)O)N3C(=O)[C@@H](NC(=O)Cn4cnnn4)[C@H]3SC2)s1 [CEFAZOLIN]

inhibition (Bacteria [4]): > 50%
Compound: Cn1c(SCC(=O)O)nnc1-c1ccc(N)cc1
Ki [3]: 85 µM

inhibition (Bacteria [4]): > 50%
Compound: O=C(O)CC(Sc1c[nH]c2ccccc12)C(=O)O (centres undefined)
Ki [3]: 68 µM

MIC [34]: 64 µg/mL
MIC (Bacteria [35]): 32 µg/mL
MIC (Bacteria [36]): 0.5 µg/mL
fractional inhibitory concentration index (FICI) [8]: > 1
MIC (Bacteria [37]): 0.25 µg/mL
fold change (FC) (Bacteria [13]): 4
fractional inhibitory concentration index (FICI) [38]: < 0.501
MIC (Bacteria [39]): 1020 µg/mL
fractional inhibitory concentration index (FICI) [19]: > 1
MIC [21]: 32 µg/mL
fractional inhibitory concentration index (FICI) (Bacteria [40]): < 0.501
fractional inhibitory concentration index (FICI) (Bacteria [41]): < 0.375
fold change (FC) [23]: 4
fractional inhibitory concentration index (FICI) (Bacteria [42]): < 0.501
MIC [25]: 1020 µg/mL
fractional inhibitory concentration index (FICI) (Bacteria [26]): < 0.501
MIC (Bacteria [28]): 4 µg/mL
MIC [29]: 2050 µg/mL
inhibition (Bacteria [4]): > 50%
fractional inhibitory concentration index (FICI) (Bacteria [43]): < 0.501
fractional inhibitory concentration index (FICI) [33]: < 0.313
Compound: Sc1nncn1NCc1cccc(Br)c1
Ki [3]: 1 µM
